Patent publication USRE38169E1, “Hyperstabilizing antisense nucleic acid binding agents” (priority 1993, dated 2003)

Columns and labels:
[1] = tested on: DNA sense (SEQ ID NO. 1) / DNA-PS antisense duplex; test: Duplex strand separation temperature (Tm); assay type: binding, equine infectious anemia retrovirus; conditions: for Tm Elevation: highest level of binding obtained
Description: (§1) Samples for determining Tm were also obtained by the above procedures. […] Thus the effects of this agent on Tm were carried out with Distamycin in solution with the duplexes tested.
(§2) Tm's were determined on a Gilford 2400 Spectrophotometer set at 260 nm, with a 4-chamber Peltier-based temperature controller. Temperature was ramped linearly at 0.5° C./min. Absorbance data were acquired with a 12-bit A/D converter, and data were processed with Lotus 123W and SigmaPlot software. Tm values were determined from the plots as the midpoint of the thermal transitions.

[2] = tested on: DNA sense (SEQ ID NO. 1) / DNA-PO antisense duplex (PO-PO); test: Duplex strand separation temperature (Tm); assay type: binding, equine infectious anemia retrovirus; conditions: for Tm Elevation: highest level of binding obtained
Description: as §1, §2

[3] = tested on: Oligo dA - Oligo dT; test: Duplex strand separation temperature (Tm); assay type: binding; conditions: for Tm Elevation: highest level of binding obtained
Description: as §1, §2

[4] = tested on: Poly rA - Oligo dT (PO); test: Duplex strand separation temperature (Tm); assay type: binding; conditions: for Tm Elevation: highest level of binding obtained
Description: as §1, §2

[5] = tested on: mRNA of a fragment of the env gene of EIAV; test: In vitro translation (wheat-germ extract, 35S-methionine); assay type: biochemical
Description: The in vitro translation studies were performed as follows. A fragment of DNA from the env gene of EIAV was transcribed with an SP-6 polymerase kit, and the resulting mRNA (approximately 600 bases long) was capped and isolated. The transcribed fragment included the target sequence 5′-[…]-3′ (SEQ ID NO. 3) (the CC-1065 binding site is underlined). The corresponding antisense sequence (using normal phosphodiester chemistry) was 5′-[…]-3′ (SEQ ID NO. 4). Translation was performed with a wheat-germ extract (Promega) in the presence of ^35S-methionine. The mRNA's were divided into approximately 2 μg aliquots, and treated according to the protocols listed for Table 3 below. Treated mRNA was separated from small molecules (such as DMSO and CC-1065) with a Sephadex 50-based NICK column. Translation was carried out in 25 μl of buffer containing the wheat germ translation system; the isolated mRNA; amino acids, including the labelled methionine; and RNAsin, an inhibitor of RNase. The proteins produced were divided into two aliquots. One aliquot was fractionated by SDS-PAGE, followed by autoradiography; and the other was analyzed by scintillation spectrometry. The concentrations of antisense oligomers and CC-1065 in the free-solution chemistries were relatively high compared to the sense target, to optimize duplex formation and drug binding. […] The following pairs were different at the P<0.05 level by Student's t-test (unpaired analysis): 1,5; 2,5; 3,4; 3,5; 4,5.

[6] = tested on: DNA sense (SEQ ID NO. 1) / DNA-PS antisense duplex (PO-PS); test: Binding of drug to duplex (NACS column, A365/A260); parameters: species or system equine infectious anemia retrovirus; conditions: PO-PS; Initial D/N = 0.10
Description: (§3) Oligodeoxyribonucleotides were obtained by chemical synthesis through standard techniques on an automated synthesizer located in the Department of Veterinary Microbiology and Parasitology at Louisiana State University. Antisense MP and PS oligonucleotides were obtained from commercial sources, as was synthetic sense RNA. Poly(rA) was obtained from Sigma Chemical Co. CC-1065 was obtained from the Upjohn Company. Oligonucleotides (0.075 μmol-P each) were mixed in 0.36 ml 0.01 M Na cacodylate buffer, pH 7.2, with CC-1065 in dimethyl formamide (0.04 ml), or with dimethylformamide only. (Note that “μmol-P” denotes μmoles of phosphate; i.e., μmoles of nucleotide bases, rather than of oligonucleotides per se.) Incubations of complementary strands, with or without drug, were carried out at 37° C. for 4 hr. In the initial experiments, unbound drug was separated from nucleotide duplexes by ethanol precipitation. Equivalent results were obtained by trapping the oligonucleotides and CC-1065 on NACS-52 columns, and washing first with low-salt buffer and then with buffer containing 1M NaCl. Unbound CC-1065 was completely retained on the column. […] Samples prepared in this manner could be directly used for determination of binding of the drug to the nucleic acid (as measured by the A365/A260 ratio), with the extinction of CC-1065 absorbance at 365 nm taken as 48,000, and the extinction of the nucleic acid absorption at 260 nm based on its composition. Similar approaches were used with the drug U-71,184, with an assumed extinction of 32,000 at 365 nm.
(§4) When methyl phosphonate and synthetic RNA were used, the purities of the crude oligonucleotides were taken to be about 30%, based on the data sheet prepared by the supplier. (The remainder comprised primarily truncated sequences.) Appropriate excess amounts of these agents were included in the reactions to ensure helix formation. The corresponding sense or antisense oligonucleotides were maintained at 0.075 μmol-P in the reaction. […] Unpurified materials were used in these preliminary studies because of the relatively high cost of purified oligoribonucleotides. The majority of the contributions to A260 for these samples should be due to material that was not duplexed.
(§5) Table 1 summarizes binding data obtained from incubations of CC-1065 with nucleotides at greater than stoichiometric levels; the levels used in these experiments were 1 drug molecule/10 nucleotide residues, which is equivalent to 4 drug molecules/20-mer duplex. […] There seemed to be no difference in drug binding between antisense oligonucleotides with a PO and those with a PS backbone. Again, the 5′-AGTTA-3′ sequence on the sense strand was presumably the primary target, and the 3′-AAGTA-5′ on the antisense probe was presumably the secondary target.

[7] = tested on: DNA sense (SEQ ID NO. 1) / DNA-PO antisense (SEQ ID NO. 2) duplex (PO-PO); test: Binding of drug to duplex (NACS column, A365/A260); parameters: species or system equine infectious anemia retrovirus; conditions: PO-PO; Initial D/N = 0.10
Description: as §3, §4, §5

[8] = tested on: DNA sense (SEQ ID NO. 1) / DNA-MP antisense duplex (PO-MP); test: Binding of drug to duplex (NACS column, A365/A260); parameters: species or system equine infectious anemia retrovirus
Description: as §3, §4, §5

[9] = tested on: DNA sense (SEQ ID NO. 1) / DNA-MP antisense duplex (PO-MP); test: Duplex strand separation temperature (Tm); assay type: binding, equine infectious anemia retrovirus
Description: as §1, §2

[10] = tested on: Oligo(dA)-Oligo(dT); test: Binding of drug to duplex (NACS column, A365/A260); conditions: Oligo(dA)-Oligo(dT); Initial D/N = 0.10
Description: as §3, §4, §5

[11] = tested on: Poly(rA)-Oligo(dT); test: Binding of drug to duplex (NACS column, A365/A260); conditions: Poly(rA)-Oligo(dT); Initial D/N = 0.10
Description: as §3, §4, §5

Molecule: Cn1cc(NC(=O)c2cc(NC(=O)c3cc(NC=O)cn3C)cn2C)cc1C(=O)NCCC(=N)N [Distamycin, Distamycin A]
- Increase in Tm ([1]; PS-PS, Distamycin in solution at D/N = 0.1): 1.5
- Tm with Distamycin, Ave ± S.D. ([1]; PS-PS, Distamycin in solution at D/N = 0.1, in °C (unit assumed)): 65.7 ± 1.5
- Tm Elevation ([1]; PS-PS): 1.5 °C
- Increase in Tm ([2]; PO-PO, Distamycin in solution at D/N = 0.1): 0.7
- Tm with Distamycin, Ave ± S.D. ([2]; PO-PO, Distamycin in solution at D/N = 0.1, in °C (unit assumed)): 68.7 ± 0.6
- Tm Elevation ([2]; PO-PO): 0.7 °C
- Increase in Tm ([3]; dA-dT, Distamycin in solution at D/N = 0.1): 21.3
- Tm with Distamycin, Ave ± S.D. ([3]; dA-dT, Distamycin in solution at D/N = 0.1, in °C (unit assumed)): 78.3 ± 0.6
- Tm Elevation ([3]; dA-dT): 21.3 °C
- Elevation of Tm ([3]; oligo(dA)-oligo(dT)): significant elevation of Tm
- Increase in Tm ([4]; rA-dT, Distamycin in solution at D/N = 0.1): 4.0
- Tm with Distamycin, Ave ± S.D. ([4]; rA-dT, Distamycin in solution at D/N = 0.1, in °C (unit assumed)): 57.0 ± 0
- Tm Elevation ([4]; rA-dT): 4.0 °C

Molecule: 5′-TGTTGGGTAATAGGGGTTGA-3′ (SEQ ID NO. 4) (chemistry not given here) [antisense]
- DPM S-35 ± standard error ([5]; 1.95 μg mRNA, antisense about 3 times mRNA sense, CC-1065 3 times antisense, scintillation spectrometry): 35.225 ± 3.667 DPM
- Production of the two protein products (autoradiography) ([5]; SDS-PAGE, autoradiography, data not shown): suppressed production
- Effect on translation ([5]; in vitro translation of env mRNA fragment): partially inhibit translation

Molecule: Cc1c[nH]c2c1C13CC1CN(C(=O)c1cc4cc(NC(=O)c5cc6ccccc6[nH]5)ccc4[nH]1)C3=CC2=O (stereo not drawn) [U-71.184, U-71,184]
- Bound D/N [6]: 0.026 ± 0.001
- Bound D/N [7]: 0.026 ± 0.004
- Binding for MP antisense sequences ([8]; MP antisense sequences): about 1 drug molecule/duplex
- Bound D/N ([8]; PO-MP, Initial D/N = 0.10): 0.029 ± 0.001
- Duplex Strand Separation Temperature ([1]; DNA / DNA-PS, drug-bound duplex (Table 6)): 73.0 ± 1.4
- Tm Elevation ([1]; PS-PS): 8.6 °C
- Duplex Strand Separation Temperature ([2]; DNA / DNA-PO, drug-bound duplex (Table 6)): 75.5 ± 0.7
- Tm Elevation ([2]; PO-PO): 7.5 °C
- Duplex Strand Separation Temperature ([9]; DNA / DNA-MP, drug-bound duplex (Table 6)): 73.0 ± 1.7
- Tm Elevation ([9]; PO-MP, highest level of binding obtained): 19.5 °C
- Bound D/N [10]: 0.049 ± 0.001
- Bound D/N [11]: 0.023 ± 0.001
- Duplex Strand Separation Temperature ([3]; Oligo dA / Oligo dT, drug-bound duplex (Table 6)): 86.7 ± 0.6
- Tm Elevation ([3]; dA-dT): 29.7 °C
- Duplex Strand Separation Temperature ([4]; Poly rA / Oligo dT (PO), drug-bound duplex (Table 6)): 54.3 ± 0.6
- Stabilization of duplexes ([4]; poly(rA)-oligo(dT)): failure of U-71,184 to stabilize
- Tm Elevation ([4]; rA-dT): 1.3 °C
